The supplement of paper PMC10307832

The cell lines below were run with CCn1c(-c2nonc2N)nc2c(C#CC(C)(C)O)ncc(OC[C@H]3CCCNC3)c21 + Cc1cc(Nc2cc(N3CCN(C)CC3)nc(Sc3ccc(NC(=O)C4CC4)cc3)n2)n[nH]1 [Tozasertib] (partner 0.1 µM) (assay: relative viability (nuclei count vs DMSO), 5 days (fraction); higher = more cells survive). Conditions: first compound 0.01 µM.
Summary of the method: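 Lung cancer cell lines were seeded in 1536-well plates and dosed by pin tool the next day, with either a single drug or a fixed anchor-drug dose combined with five library-drug doses (not always all listed) spaced in √10 steps. Five days later, one step fixed the cells and stained their nuclei (final 0.05% Triton X-100, 1% formaldehyde, 1 ug/ml Hoechst), and nuclei were counted on 4× images. Relative viability is the nuclei count in treated wells divided by the count in vehicle wells, and each value is the median of duplicate plates.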

| Cell Line | relative viability |
| --- | --- |
| COR-L23 | 0.202 |
| COR-L 105 | 0.31 |
| LOU-NH91 | 0.702 |
| ChaGo-K-1 | 0.216 |
| NCI-H2170 | 0.769 |
| NCI-H2405 | 0.768 |
| HOP-62 | 0.369 |
| SW 900 | 0.626 |
| LU99A | 0.296 |
| BEN | 0.588 |
| HARA | 0.13 |
| HCC-78 | 0.391 |
| NCI-H322M | 0.465 |
| LCLC-97TM1 | 0.203 |
| NCI-H2009 | 0.72 |
| A-427 | 0.243 |

Same assay, conditions: first compound 0.03162 µM

| Cell Line | relative viability |
| --- | --- |
| NCI-H522 | 0.55 |
| NCI-H1623 | 0.468 |
| NCI-H727 | 0.662 |
| NCI-H1650 | 0.474 |
| NCI-H1993 | 0.591 |
| SW 1573 | 0.179 |
| NCI-H838 | 0.295 |
| LCLC-103H | 0.555 |
| NCI-H520 | 0.482 |
| NCI-H2126 | 0.885 |
| EMC-BAC-2 | 0.287 |
| NCI-H2085 | 0.771 |
| HCC-366 | 0.12 |
| NCI-H1666 | 0.691 |
| NCI-H596 | 0.886 |
| LK-2 | 0.171 |
| NCI-H2087 | 0.258 |
| NCI-H2342 | 0.588 |
| SK-MES-1 | 0.835 |

| Cell Line | relative viability |
| --- | --- |
| H3255 | 0.646 |
| COR-L23 | 0.19 |
| COR-L 105 | 0.432 |
| LOU-NH91 | 0.763 |
| ChaGo-K-1 | 0.245 |
| NCI-H2170 | 0.755 |
| NCI-H2405 | 0.806 |
| HOP-62 | 0.316 |
| SW 900 | 0.747 |
| LU99A | 0.268 |
| BEN | 0.481 |
| HARA | 0.106 |
| NCI-H1648 | 0.527 |
| HCC-78 | 0.414 |
| NCI-H322M | 0.419 |
| LCLC-97TM1 | 0.31 |
| NCI-H2009 | 0.811 |
| A-427 | 0.227 |

Same assay, conditions: first compound 0.1 µM

| Cell Line | relative viability |
| --- | --- |
| NCI-H522 | 0.52 |
| NCI-H1623 | 0.446 |
| NCI-H727 | 0.643 |
| NCI-H1650 | 0.44 |
| NCI-H1993 | 0.549 |
| SW 1573 | 0.178 |
| NCI-H838 | 0.29 |
| LCLC-103H | 0.432 |
| NCI-H520 | 0.323 |
| NCI-H2126 | 0.806 |
| EMC-BAC-2 | 0.268 |
| NCI-H2085 | 0.811 |
| HCC-366 | 0.194 |
| NCI-H1666 | 0.644 |
| NCI-H596 | 0.862 |
| NCI-H2087 | 0.248 |
| NCI-H2342 | 0.466 |
| SK-MES-1 | 0.894 |
| H3255 | 0.63 |

| Cell Line | relative viability |
| --- | --- |
| COR-L23 | 0.235 |
| COR-L 105 | 0.407 |
| LOU-NH91 | 0.634 |
| ChaGo-K-1 | 0.228 |
| NCI-H2170 | 0.778 |
| NCI-H2405 | 0.692 |
| HOP-62 | 0.308 |
| HCC-44 | 1.08 |
| SW 900 | 0.646 |
| LU99A | 0.296 |
| BEN | 0.476 |
| HARA | 0.143 |
| NCI-H1648 | 0.466 |
| HCC-78 | 0.36 |
| NCI-H322M | 0.423 |
| LCLC-97TM1 | 0.211 |
| NCI-H2009 | 0.724 |
| A-427 | 0.251 |

Same assay, conditions: first compound 0.3162 µM

| Cell Line | relative viability |
| --- | --- |
| NCI-H522 | 0.517 |
| NCI-H1623 | 0.404 |
| NCI-H727 | 0.693 |
| NCI-H1650 | 0.403 |
| NCI-H1993 | 0.609 |
| SW 1573 | 0.201 |
| NCI-H838 | 0.248 |
| LCLC-103H | 0.472 |
| NCI-H520 | 0.358 |
| NCI-H2126 | 0.817 |
| EMC-BAC-2 | 0.255 |
| NCI-H2085 | 0.822 |
| HCC-366 | 0.111 |
| NCI-H1666 | 0.578 |
| NCI-H596 | 0.951 |
| NCI-H2087 | 0.259 |
| NCI-H2342 | 0.572 |
| SK-MES-1 | 0.854 |
| H3255 | 0.547 |

| Cell Line | relative viability |
| --- | --- |
| COR-L23 | 0.188 |
| COR-L 105 | 0.367 |
| LOU-NH91 | 0.665 |
| ChaGo-K-1 | 0.248 |
| NCI-H2170 | 0.705 |
| NCI-H2405 | 0.71 |
| HOP-62 | 0.406 |
| HCC-44 | 0.79 |
| SW 900 | 0.561 |
| LU99A | 0.308 |
| BEN | 0.53 |
| HARA | 0.0993 |
| NCI-H1648 | 0.444 |
| HCC-78 | 0.41 |
| NCI-H322M | 0.42 |
| LCLC-97TM1 | 0.271 |
| NCI-H2009 | 0.668 |
| A-427 | 0.24 |

Same assay, conditions: first compound 1 µM

| Cell Line | relative viability |
| --- | --- |
| NCI-H522 | 0.564 |
| NCI-H1623 | 0.492 |
| NCI-H727 | 0.575 |
| NCI-H1650 | 0.44 |
| NCI-H1993 | 0.574 |
| SW 1573 | 0.14 |
| NCI-H838 | 0.253 |
| LCLC-103H | 0.453 |
| NCI-H520 | 0.335 |
| NCI-H2126 | 0.863 |
| EMC-BAC-2 | 0.262 |
| NCI-H2085 | 0.729 |
| HCC-366 | 0.129 |
| NCI-H1666 | 0.567 |
| NCI-H596 | 0.792 |
| LK-2 | 0.184 |

| Cell Line | relative viability |
| --- | --- |
| NCI-H2087 | 0.303 |
| NCI-H2342 | 0.612 |
| SK-MES-1 | 0.856 |
| H3255 | 0.615 |
| COR-L23 | 0.18 |
| COR-L 105 | 0.374 |
| LOU-NH91 | 0.732 |
| ChaGo-K-1 | 0.248 |
| NCI-H2170 | 0.733 |
| NCI-H2405 | 0.706 |
| HOP-62 | 0.404 |
| HCC-44 | 1.08 |
| SW 900 | 0.579 |
| LU99A | 0.315 |
| BEN | 0.515 |
